Source: US12139499B2, “Heteroaryl compounds for treating Huntington's disease” (PTC THERAPEUTICS, INC., priority 2018, dated 2024)

system: Endogenous Huntingtin Protein; assay: Endogenous Huntingtin Protein Assay (ELISA-based MSD electrochemiluminescence); assay type: cell-based; settings: Table 1
In short: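 Sandwich MSD electrochemiluminescence immunoassay. Capture used MW1 (expanded polyglutamine) or MAB2166 antibody coated at 1 μg/mL overnight at 4 °C. Samples were bound overnight at 4 °C, then a rabbit monoclonal detection antibody and SULFO-TAG anti-rabbit, each at 0.25 μg/mL, were applied for 1 h at room temperature.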

IC50 [nM]	Structure (SMILES)
100 to 500	CNC1CC(N(C)c2nc3nnc(-c4ccc(-c5cn[nH]c5)cc4O)cc3s2)C1 (stereo not shown) [Compound 350, 2-(6-{methyl[3-(methylamino)cyclobutyl]amino}[1,3]thiazolo[4,5-c]pyridazin-3-yl)-5-(1H-pyrazol-4-yl)phenol]
1000 to 3000	CN(C)[C@H]1CC[C@H](N(C)c2nc3nnc(-c4ccc(-c5cn[nH]c5)cc4O)cc3s2)CC1 [Compound 351, 2-(6-{[(1r,4r)-4-(dimethylamino)cyclohexyl](methyl)amino][1,3]thiazolo[4,5-c]pyridazin-3-yl)-5-(1H-pyrazol-4-yl)phenol]
≤ 100	CN1CCC[C@H](N(C)c2nc3nnc(-c4ccc(-c5cn[nH]c5)cc4O)cc3s2)C1 [Compound 352, 2-(6-{methyl[(3S)-1-methylpiperidin-3-yl]amino}[1,3]thiazolo[4,5-c]pyridazin-3-yl)-5-(1H-pyrazol-4-yl)phenol]
100 to 500	CN(c1nc2nnc(-c3ccc(-c4cn[nH]c4)cc3O)cc2s1)C1CNC1 [Compound 353, 2-{6-[(azetidin-3-yl)(methyl)amino][1,3]thiazolo[4,5-c]pyridazin-3-yl}-5-(1H-pyrazol-4-yl)phenol]
≤ 100	Oc1cc(-c2cn[nH]c2)ccc1-c1cc2sc(N3CCC34CCNCC4)nc2nn1 [Compound 354, 2-[6-(1,7-diazaspiro[3.5]nonan-1-yl)[1,3]thiazolo[4,5-c]pyridazin-3-yl]-5-(1H-pyrazol-4-yl)phenol]
100 to 500	CN(c1nc2nnc(-c3ccc(-c4cn[nH]c4)cc3O)cc2s1)C1CC2(CNC2)C1 [Compound 356, 2-{6-[(2-azaspiro[3.3]heptan-6-yl)(methyl)amino][1,3]thiazolo[4,5-c]pyridazin-3-yl}-5-(1H-pyrazol-4-yl)phenol]
100 to 500	Oc1cc(-c2cn[nH]c2)ccc1-c1cc2sc(NC3CCNCC3)nc2nn1 [Compound 357, 2-{6-[(piperidin-4-yl)amino][1,3]thiazolo[4,5-c]pyridazin-3-yl)-5-(1H-pyrazol-4-yl)phenol]

Further lines, the molecule ahead of its results:

Structure (SMILES)	IC50 [nM]
CN1CC[C@@H]2[C@@H](CCN2c2nc3nnc(-c4ccc(-c5cn[nH]c5)cc4O)cc3s2)C1 [Compound 347, 2-{6-[(3aS,7aR)-5-methyloctahydro-1H-pyrrolo[3,2-c]pyridin-1-yl][1,3]thiazolo[4,5-c]pyridazin-3-yl}-5-(1H-pyrazol-4-yl)phenol]	1000 to 3000
CN(c1nc2nnc(-c3ccc(-c4cn[nH]c4)cc3O)cc2s1)[C@@H]1CCCNC1 [Compound 348, 2-(6-{methyl[(3R)-piperidin-3-yl]amino}[1,3]thiazolo[4,5-c]pyridazin-3-yl)-5-(1H-pyrazol-4-yl)phenol]	100 to 500
CN(c1nc2nnc(-c3ccc(-c4cn[nH]c4)cc3O)cc2s1)[C@H]1CCCNC1 [Compound 349, 2-(6-{methyl[(3S)-piperidin-3-yl]amino}[1,3]thiazolo[4,5-c]pyridazin-3-yl)-5-(1H-pyrazol-4-yl)phenol]	≤ 100
CN(c1nc2nnc(-c3ccc(-c4cn[nH]c4)cc3O)cc2s1)C1CCNCC1(C)C (stereo not shown) [Compound 355, 2-{6-[(3,3-dimethylpiperidin-4-yl)(methyl)amino][1,3]thiazolo[4,5-c]pyridazin-3-yl}-5-(1H-pyrazol-4-yl)phenol]	≤ 100
CN(c1nc2nnc(-c3ccc(-c4cn[nH]c4)cc3O)cc2s1)[C@H]1CCNC[C@H]1F [Compound 358, 2-(6-{[(3R,4S)-3-fluoropiperidin-4-yl](methyl)amino}[1,3]thiazolo[4,5-c]pyridazin-3-yl)-5-(1H-pyrazol-4-yl)phenol]	500 to 1000
Cc1nc2c(C)cc(-c3cc(F)c4nc([C@H]5C[C@@H](C)N[C@@H](C)C5)sc4c3)nc2o1 [Compound 359, 5-{2-[(2R,4r,6S)-2,6-dimethylpiperidin-4-yl]-4-fluoro-1,3-benzothiazol-6-yl}-2,7-dimethyl[1,3]oxazolo[5,4-b]pyridine]	≤ 100
